Patent publication US20100210616A1, “METAL COMPLEXES INCORPORATED WITHIN BIODEGRADABLE NANOPARTICLES AND THEIR USE” (THE UNIVERSITY OF AKRON, priority 2007, published 2010)

Tests used:
[1] = system: P. aeruginosa (PAO1, PAM57-15 and PAJG3), B. cepacia (PC783), B. multivorans (HI2229), B. cenocepacia (J2315), B. dolosa, M. tuberculosis and control E. coli …; assay: MIC testing against panel of bacterial strains; assay type: cell-based; details: prior to loading in nanoparticles; for MIC range: panel of strains
[2] = MIC testing against panel of bacterial strains; assay type: cell-based; details: panel of strains; prior to loading in nanoparticles
[3] = system: M. tuberculosis; assay: MIC against M. tuberculosis; assay type: cell-based; details: Mycobacterium tuberculosis
[4] = system: J53 containing the silver resistance plasmid pMG101; assay: microbe, parasite or virus in culture; assay type: cell-based, E. coli; details: Escherichia coli
[5] = system: silver sensitive E. coli J53; assay: MIC against silver sensitive E. coli J53; assay type: cell-based; details: Escherichia coli

| Structure (SMILES) | MIC range [1] | antimicrobial effectiveness in MIC testing versus other more water soluble silver metal complexes [1] | MIC90 [2] | MIC [3] | MIC [4] | MIC [5] |
| --- | --- | --- | --- | --- | --- | --- |
| CCCCCCN1C(Cl)=C(Cl)N(C)[CH]1[Ag][O]C(C)=O (stereo not drawn) [compound 9] | 1 to 2 µg/mL | more effective | 1 µg/mL | 16000 µg/mL | > 10 µg/mL | 1 µg/mL |
| CC(=O)[O][Ag][CH]1N(C)c2c(n(C)c(=O)n(Cc3ccc4ccccc4c3)c2=O)N1C (stereo not drawn) [compound 13] | 0.8 to 2 µg/mL | more effective | 0.8 µg/mL | 16000 µg/mL | > 10 µg/mL | 1 µg/mL |
